Columns and labels:
[1] = tested on: MCF7; assay: Cytotoxicity in human MCF7 cells assessed as reduction in cell viability incubated for 3 days by MTT assay; format: functional, cell-based
[2] = tested on: A549; assay: Cytotoxicity in human A549 cells assessed as reduction in cell viability incubated for 3 days by MTT assay; format: functional, cell-based
[3] = tested on: HepG2; assay: Cytotoxicity in human HepG2 cells assessed as reduction in cell viability incubated for 3 days by MTT assay; format: functional, cell-based
[4] = tested on: HeLa; assay: Cytotoxicity in human HeLa cells assessed as reduction in cell viability incubated for 3 days by MTT assay; format: functional, cell-based
[5] = tested on: NCM460; assay: Cytotoxicity in human NCM460 cells assessed as reduction in cell viability incubated for 3 days by MTT assay; format: cell-based
[6] = Homo sapiens, HeLa, 72 h, read-out: IC50

Structure (SMILES) | IC50 ([1]; mcf7) | IC50 ([2]; a549) | IC50 ([3]; hepg2) | IC50 ([4]; hela) | IC50 ([5]; ncm460) | IC50 [4, 6] | IC50 ([1]; Homo sapiens, MCF7, 72 h, read-out: IC50) | IC50 ([2]; Homo sapiens, A549, 72 h, read-out: IC50) | IC50 ([3]; Homo sapiens, HepG2, 72 h, read-out: IC50) | IC50 ([5]; Homo sapiens, NCM460, 72 h, read-out: IC50)
C=CC(C)(C)[C@]1(C[C@]2(OC)NC(=O)[C@@H]3CCCN3C2=O)C(=O)Nc2cc3c(cc21)C=CC(C)(C)O3 | Not Active | Not Active | Not Active | Not Active | Non-Toxic |  |  |  |  | 
C=CC(C)(C)c1[nH]c2cc3c(cc2c1C=O)C=CC(C)(C)O3 | Not Active | Not Active | Not Active |  | Non-Toxic | 6400 nM |  |  |  | 
C=CC(C)(C)[C@@]1(C[C@@H]2NC(=O)[C@@H]3CCCN3C2=O)C(=O)Nc2cc3c(cc21)C=CC(C)(C)O3 | Not Active | Not Active | Not Active | Not Active | Non-Toxic |  |  |  |  | 
C=CC(C)(C)[C@]1(C[C@@H]2NC(=O)[C@@H]3CCCN3C2=O)C(=O)Nc2cc3c(cc21)C=CC(C)(C)O3 | Not Active | Not Active | Not Active | Not Active | Non-Toxic |  |  |  |  | 
C=CC(C)(C)[C@@]12Nc3cc4c(cc3[C@]1(O)C[C@]1(NC(=O)[C@H]3CCCN3C1=O)O2)C=CC(C)(C)O4 | Not Active | Not Active | Not Active |  | Non-Toxic | 7300 nM |  |  |  | 
CC(=O)O[C@H]1C(=O)[C@@]2(C)[C@H]([C@H](OC(=O)c3ccccc3)[C@]3(O)C[C@H](OC(=O)[C@H](O)[C@@H](NC(=O)c4ccccc4)c4ccccc4)C(C)=C1C3(C)C)[C@]1(OC(C)=O)CO[C@@H]1C[C@@H]2O [PACLITAXEL] |  |  |  |  |  | < 8 nM | < 8 nM | < 8 nM | < 8 nM | < 8 nM
C=CC(C)(C)[C@]1(CC2(O)NC(=O)C3CCCN3C2=O)C(=O)Nc2cc3c(cc21)C=CC(C)(C)O3 (stereo not given in full) | Not Active | Not Active | Not Active | Not Active | Non-Toxic |  |  |  |  | 
C=CC(C)(C)[C@@]12Nc3cc4c(cc3[C@]1(O)C[C@H]1C(=O)N3CCC[C@H]3C(=O)N12)C=CC(C)(C)O4 | Not Active | Not Active | Not Active | Not Active | Non-Toxic |  |  |  |  | 
C=CC(C)(C)[C@@]12Nc3cc4c(cc3[C@]1(O)C[C@]1(O)C(=O)N3CCC[C@H]3C(=O)N21)C=CC(C)(C)O4 | Not Active | Not Active | Not Active | Not Active | Non-Toxic |  |  |  |  | 
C=CC(C)(C)[C@]1(CC2NC(=O)C3(O)CCCN3C2=O)C(=O)Nc2cc3c(cc21)C=CC(C)(C)O3 (stereo not given in full) | Not Active | Not Active | Not Active | Not Active | Non-Toxic |  |  |  |  | 

Source: ChEMBL document CHEMBL4340579, “HPLC-DAD-Directed Isolation of Linearly Fused Prenylated Indole Alkaloids from a Soil-Derived Aspergillus versicolor” (J Nat Prod, 2019)
